Source: PMC8765048 (JCI Insight, 2022)
Where two headings read alike, the source gives them in different places.

Key:
[1] = tested on: SARS-CoV-2 WA1; test: microbe, parasite or virus in culture; format: cell-based
[2] = tested on: SARS-CoV-2 B.1.351 (Beta); test: microbe, parasite or virus in culture; format: cell-based
[3] = tested on: SARS-CoV-2 P.1 (Gamma); test: microbe, parasite or virus in culture; format: cell-based
[4] = tested on: SARS-CoV-2 B.1.351 (Beta); test: microbe, parasite or virus in culture; format: cell-based; remark: listed apart in the source
[5] = tested on: SARS-CoV-2 B.1.429 (Epsilon); test: microbe, parasite or virus in culture; format: cell-based
[6] = tested on: SARS-CoV-2; test: Combinatorial sangivamycin/remdesivir efficacy testing, Calu-3 cells; format: cell-based; conditions: Severe acute respiratory syndrome coronavirus 2, Calu-3; read-out: IC50 (nM), S:R by [Sangivamycin]
[7] = CellTiter-Glo cell viability assay; format: cell-based; conditions: human, HepG2 cells; HepG2, 72 h
[8] = tested on: Huh-7 cells; test: Mitochondrial dye cell imaging (MTG, NAO); format: cell-based, human; conditions: 100 nM for 5 d, MTG and NAO
Text: (§1) Other important measures of cell viability are mitochondrial integrity, function, cardiotoxicity, and genotoxicity, since other nucleoside analogs may vary in their effect on these endpoints ([29], [30]). Dyes commonly used to assess mitochondrial integrity are MitoTracker Green (MTG), a mitochondrial stain mostly localized to mitochondria based on hydrophobicity, and N-alkyl acridine orange (NAO), which binds to mitochondrial cardiolipin. Untreated Huh-7 cells and Huh-7 cells treated for 5 days with 100 nM sangivamycin were stained with MTG and NAO and imaged by fluorescence microscopy. […] To more quantitatively assess the impact of sangivamycin on mitochondrial integrity, we evaluated the effect of sangivamycin on mitochondrial metabolic function as well as cytoplasmic glycolytic function. The XF96e Seahorse instrument was used to quantify the oxygen consumption rate (OCR) over time in untreated control and sangivamycin-treated Huh-7 cells. […] Standard metabolic endpoints quantified with or without sangivamycin included sequential treatment and washout of cell cultures with oligomycin (ATP synthase inhibitor), carbonyl cyanide 4-(trifluoromethoxy)phenylhydrazone (FCCP; a proton gradient uncoupler), and antimycin A + rotenone (complex I and III blockers) (Supplemental Figure 7).
Huh-7 cells were untreated or treated with 100 nM sangivamycin for 5 days. […]

[9] = tested on: Huh-7 cells; test: Acute mitochondrial or glycolytic stress assay (Seahorse XF96e); format: cell-based, human
Text: as §1, with “7). […]” for “7).”

[10] = Plasma protein binding assessment (equilibrium dialysis); format: in vitro ADME; conditions: 37°C
Protocol: The plasma protein binding assay was performed by Cyprotex to assess sangivamycin plasma protein binding. Equilibrium dialysis was used to determine the extent of binding of a compound to plasma proteins. A semipermeable membrane separated a protein-containing compartment (PC) from a protein-free compartment (PF). The system was set to equilibrate at 37°C. The test compound present in each compartment was then quantified by LC-MS/MS. The extent of binding is reported as a fraction unbound (fu) value, which is calculated as fu = 1 – ([PC – PF]/PC).

[11] = Metabolic stability testing, liver microsomes; format: in vitro ADME; conditions: pH 7.4, 0.5 mg/mL microsomes, NADPH
Protocol: To evaluate metabolic stability, sangivamycin was incubated by Cyprotex in duplicate with active and heat-inactivated human and CD-1 laboratory mouse liver microsomes (0.5 mg/mL) and cofactors (2.5 mM NADPH and 3.3 mM MgCl2) in 0.1 M phosphate buffer (pH 7.4) at 37°C. Aliquots were removed at 0, 15, 30, 60, 90, and 120 minutes, and the amount of drug remaining at each time point was determined by LC-MS/MS.

[12] = mice, cited from earlier work
[13] = Severe acute respiratory syndrome coronavirus 2, Vero C1008, 18 h
[14] = Severe acute respiratory syndrome coronavirus 2, Vero C1008, 24 h
[15] = Severe acute respiratory syndrome coronavirus 2, Calu-3, 48 h
[16] = Severe acute respiratory syndrome coronavirus 2, Calu-3, 24 h

Question: With `NC(=O)c1cn([C@@H]2O[C@H](CO)[C@@H](O)[C@H]2O)c2ncnc(N)c12` [Sangivamycin, sangivamycin] as the molecule, how does the IC90 ([1]; Severe acute respiratory syndrome coronavirus 2, Vero C1008, 48 h) read?
Answer: 0.064 ± 0.003 µM

Question: And the IC50 ([1]; Severe acute respiratory syndrome coronavirus 2, Vero C1008, 48 h, read-out: IC50)?
Answer: 0.034 ± 0.001 µM

Question: And the IC50 ([1]; Severe acute respiratory syndrome coronavirus 2, Vero C1008, read-out: average IC50)?
Answer: 0.052 ± 0.013 µM

Question: What about the “SI (selectivity index, CC50/IC50)” value ([1]; WA1, Vero E6 cells) of the same molecule?
Answer: 14.4

Question: And the “SI (selectivity index, CC50/IC50)” value ([2]; B.1.351 (Beta), Vero E6 cells)?
Answer: >10.5

Question: And the IC50 [2, 13]?
Answer: 0.0574 µM

Question: What about the IC90 [2, 13] of the same molecule?
Answer: 0.224 µM

Question: What about the “SI (selectivity index, CC50/IC50)” value ([3]; P.1 (Gamma), Vero E6 cells) of the same molecule?
Answer: >22.2

Question: What about the IC50 [3, 14] of the same molecule?
Answer: 0.0271 µM

Question: What about the IC90 [3, 14] of the same molecule?
Answer: 0.245 µM

Question: What about the “SI (selectivity index, CC50/IC50)” value ([4]; B.1.351 (Beta), Calu-3 cells) of the same molecule?
Answer: >10.1

Question: And the IC50 [4, 15]?
Answer: 0.0594 µM

Question: What about the IC90 [4, 15] of the same molecule?
Answer: 0.135 µM

Question: And the “SI (selectivity index, CC50/IC50)” value ([5]; B.1.429 (Epsilon), Calu-3 cells)?
Answer: >8.4

Question: And the IC50 [5, 16]?
Answer: 0.0711 µM

Question: What about the IC90 [5, 16] of the same molecule?
Answer: 0.234 µM

Question: What about the IC50 [6] of the same molecule?
Answer: 69.6 nM

Question: What about the CC50 at 72 h [7] of the same molecule?
Answer: 1.77 µM

Question: What about the “Effect on mitochondrial integrity (imaging with mitochondrial dyes)” value [8] of the same molecule?
Answer: Negative

Question: What about the “Effect on mitochondrial integrity (imaging with mitochondrial dyes)” value ([8]; listed as sangivamycin) of the same molecule?
Answer: did not significantly affect mitochondrial structural integrity

Question: And the “Acute effects on mitochondrial and glycolytic stress (Seahorse measurements)” value ([9]; 0.05–5 μM)?
Answer: >5 µM

Question: What about the “oxygen consumption rate (OCR) relative to untreated control cells” value ([9]; up to 5 μM) of the same molecule?
Answer: did not significantly change the OCR

Question: What about the fraction unbound ([10]; human) of the same molecule?
Answer: 0.83

Question: And the fraction unbound ([10]; mouse)?
Answer: 0.879

Question: And the remaining at 2 h, 5 μM ([11]; CD-1, mouse, read-out: Mouse liver microsome stability (% remaining at 120 min))?
Answer: 100%

Question: What about the remaining at 2 h, 5 μM ([11]; human, read-out: Human liver microsome stability (% remaining at 120 min)) of the same molecule?
Answer: 100%

Question: And the half-life in blood ([12]; 3H-labeled sangivamycin, i.p. 8 mg/kg)?
Answer: 50 h

Question: And the “drug-derived radioactivity accounted for in the urine” value ([12]; over a period of 12 days)?
Answer: 40%
